*1 amine or outer side, *2 acyl side, *3 side chain or, on linkers, in order; H or OH if unused. Where a SMILES comes first, the peptide text is derived from it. Bridges are numbered along the chain shown (N, C = ends). [ ]: non-standard residue; d: D form. ξ: configuration not given here. X2 = CCCCCCCCCCCC(CC(=O)[*:1])O[*:2]; ξAsp(3ξ-OH) = NC(C(=O)O)C(O)C(=O)O; X1 = O=C(C1C(O)CCN1[*:1])[*:2]
What was measured:
streptococci = test: MIC summary, streptococci; assay type: cell-based; conditions: against streptococci
S pneumoniae A20759 = assay type: in vivo, mice; conditions: Exp. Run No. C-1176, observed 5 days
[1] = test system: Anaerobic gram-negative rod bacteria, such as Bacteroides and Fusobacterium species; test: MIC summary, anaerobic gram-negative rods; assay type: cell-based
[2] = test system: aerobic and anaerobic gram-positive pathogens; design: species or system mice; conditions: mouse
Blood levels in mice = assay type: in vivo
Procedure: Blood levels in mice were determined following an intravenous or intramuscular administration of Bu-2517. Blood samples were collected from orbital sinuses and assayed by the paper disc-agar diffusion method using S. lutea PCI 1001 as the test organism. […] Bu-2517 was not absorbed when administered orally. T1 TABLE 7-Blood Levels in Mice? -Blood levels (mcg/ml)? -intravenous dose? intramuscular dose? -Time after? 10? 30? 10? 30? 100? -administration? mg/kg? mg/kg? mg/kg? mg/kg? mg/kg? -1 min 70 224 ? --? --? --? -5 41 162 ? --? --? --? -10 33 131 ? 11 22 --? -15 --? --? --? --? 45 -20 23 68 13 32 --? -30 18 73 14 48 45 -45 18 64 14 41 --? -1 hr 14 50 13 36 47 -1.5 7.9 32 11 35 --? -2 5.6 23 8.9 28 --? -3 3.1 14 5.3 18 55 -5 --? --? <2.0 ? 8.9 --? -7 --? --? --? 3.8 23 -10 --? --? --? --? 15 -24 --? --? --? --? <0.3 -Half life (hr.) 0.81 0.87 1.6 1.8 3.7 -AUC* (mcg.hr/ml) 39 163 ? 40 137 ? 460 ? -

anaerobic bacteria = test: MIC summary, anaerobic bacteria; assay type: cell-based
staphylococci = test: MIC summary, staphylococci; assay type: cell-based; conditions: against staphylococci
[3] = test system: aerobic gram-negative organisms; assay type: cell-based

In the case of `CCCCCCCCCCCC1CC(=O)N2CCCC2C(=O)NC(CO)C(=O)N2CCCC2C(=O)NC(CCCNC(=N)N)C(=O)NC(C(O)C(=O)O)C(=O)NC(CO)C(=O)N2CCC(O)C2C(=O)NC(C(O)C(=O)O)C(=O)O1` (stereo not drawn) [Bu-2517] (PSPR[ξAsp(3ξ-OH)]S[X1][ξAsp(3ξ-OH)]; linker N-C via X2; configuration not given here), the “fold more active than amphomycin” value (streptococci) is reported as 8-32 fold, the “PD50 (mg/kg, im)” value (S pneumoniae A20759) is reported as 1.9 mg/kg and the “susceptibility of anaerobic gram-negative rod bacteria” value [1] is reported as “generally resistant”. The “in vivo activity relative to the potency of amphomycin” value [2] was “equal to up to three times”, the “blood level after 7 hours” value (Blood levels in mice; intramuscular administration of 30 mg/kg) was “measurable blood level was still observed” and the “AUC* (mcg.hr/ml), area under curve” value (Blood levels in mice; intramuscular dose 10 mg/kg) was 40 µg·h/mL. The “Half life” value (Blood levels in mice; intramuscular dose 10 mg/kg) was 1.6 h, the “Blood levels” value (Blood levels in mice; intramuscular dose 10 mg/kg, 10 min) was 11000 ng/mL and the “Blood levels” value (Blood levels in mice; intramuscular dose 10 mg/kg, 20 min) was 13000 ng/mL. For the same compound, the “Blood levels” value (Blood levels in mice; intramuscular dose 10 mg/kg, 30 min) was 14000 ng/mL, the “Blood levels” value (Blood levels in mice; intramuscular dose 10 mg/kg, 45 min) was 14000 ng/mL and the “Blood levels” value (Blood levels in mice; intramuscular dose 10 mg/kg, 1 hr) was 13000 ng/mL. The “Blood levels” value (Blood levels in mice; intramuscular dose 10 mg/kg, 1.5 hr) was 11000 ng/mL, the “Blood levels” value (Blood levels in mice; intramuscular dose 10 mg/kg, 2 hr) was 8900 ng/mL and the “Blood levels” value (Blood levels in mice; intramuscular dose 10 mg/kg, 3 hr) was 5300 ng/mL. For the same compound, the “Blood levels” value (Blood levels in mice; intramuscular dose 10 mg/kg, 5 hr) was less than 2000 ng/mL, the “AUC* (mcg.hr/ml), area under curve” value (Blood levels in mice; intramuscular dose 30 mg/kg) was 137 µg·h/mL and the “Half life” value (Blood levels in mice; intramuscular dose 30 mg/kg) was 1.8 h. For the same compound, the “Blood levels” value (Blood levels in mice; intramuscular dose 30 mg/kg, 10 min) was 22000 ng/mL, the “Blood levels” value (Blood levels in mice; intramuscular dose 30 mg/kg, 20 min) was 32000 ng/mL and the “Blood levels” value (Blood levels in mice; intramuscular dose 30 mg/kg, 30 min) was 48000 ng/mL. The “Blood levels” value (Blood levels in mice; intramuscular dose 30 mg/kg, 45 min) was 41000 ng/mL, the “Blood levels” value (Blood levels in mice; intramuscular dose 30 mg/kg, 1 hr) was 36000 ng/mL and the “Blood levels” value (Blood levels in mice; intramuscular dose 30 mg/kg, 1.5 hr) was 35000 ng/mL. For the same compound, the “Blood levels” value (Blood levels in mice; intramuscular dose 30 mg/kg, 2 hr) was 28000 ng/mL, the “Blood levels” value (Blood levels in mice; intramuscular dose 30 mg/kg, 3 hr) was 18000 ng/mL and the “Blood levels” value (Blood levels in mice; intramuscular dose 30 mg/kg, 5 hr) was 8900 ng/mL. For the same compound, the “Blood levels” value (Blood levels in mice; intramuscular dose 30 mg/kg, 7 hr) was 3800 ng/mL, the “AUC* (mcg.hr/ml), area under curve” value (Blood levels in mice; intramuscular dose 100 mg/kg) was 460 µg·h/mL and the “Half life” value (Blood levels in mice; intramuscular dose 100 mg/kg) was 3.7 h. For the same compound, the “Blood levels” value (Blood levels in mice; intramuscular dose 100 mg/kg, 15 min) was 45000 ng/mL, the “Blood levels” value (Blood levels in mice; intramuscular dose 100 mg/kg, 30 min) was 45000 ng/mL and the “Blood levels” value (Blood levels in mice; intramuscular dose 100 mg/kg, 1 hr) was 47000 ng/mL. The “Blood levels” value (Blood levels in mice; intramuscular dose 100 mg/kg, 3 hr) was 55000 ng/mL, the “Blood levels” value (Blood levels in mice; intramuscular dose 100 mg/kg, 7 hr) was 23000 ng/mL and the “Blood levels” value (Blood levels in mice; intramuscular dose 100 mg/kg, 10 hr) was 15000 ng/mL. The “Blood levels” value (Blood levels in mice; intramuscular dose 100 mg/kg, 24 hr) was less than 300 ng/mL, the “AUC* (mcg.hr/ml), area under curve” value (Blood levels in mice; intravenous dose 10 mg/kg) was 39 µg·h/mL and the “Half life” value (Blood levels in mice; intravenous dose 10 mg/kg) was 0.81 h. For the same compound, the “Blood levels” value (Blood levels in mice; intravenous dose 10 mg/kg, 1 min after administration) was 70000 ng/mL, the “Blood levels” value (Blood levels in mice; intravenous dose 10 mg/kg, 5 min) was 41000 ng/mL and the “Blood levels” value (Blood levels in mice; intravenous dose 10 mg/kg, 10 min) was 33000 ng/mL. The “Blood levels” value (Blood levels in mice; intravenous dose 10 mg/kg, 20 min) was 23000 ng/mL, the “Blood levels” value (Blood levels in mice; intravenous dose 10 mg/kg, 30 min) was 18000 ng/mL and the “Blood levels” value (Blood levels in mice; intravenous dose 10 mg/kg, 45 min) was 18000 ng/mL. The “Blood levels” value (Blood levels in mice; intravenous dose 10 mg/kg, 1 hr) was 14000 ng/mL, the “Blood levels” value (Blood levels in mice; intravenous dose 10 mg/kg, 1.5 hr) was 7900 ng/mL and the “Blood levels” value (Blood levels in mice; intravenous dose 10 mg/kg, 2 hr) was 5600 ng/mL. For the same compound, the “Blood levels” value (Blood levels in mice; intravenous dose 10 mg/kg, 3 hr) was 3100 ng/mL, the “AUC* (mcg.hr/ml), area under curve” value (Blood levels in mice; intravenous dose 30 mg/kg) was 163 µg·h/mL and the “Half life” value (Blood levels in mice; intravenous dose 30 mg/kg) was 0.87 h. The “Blood levels” value (Blood levels in mice; intravenous dose 30 mg/kg, 1 min after administration) was 224000 ng/mL, the “Blood levels” value (Blood levels in mice; intravenous dose 30 mg/kg, 5 min) was 162000 ng/mL and the “Blood levels” value (Blood levels in mice; intravenous dose 30 mg/kg, 10 min) was 131000 ng/mL. The “Blood levels” value (Blood levels in mice; intravenous dose 30 mg/kg, 20 min) was 68000 ng/mL, the “Blood levels” value (Blood levels in mice; intravenous dose 30 mg/kg, 30 min) was 73000 ng/mL and the “Blood levels” value (Blood levels in mice; intravenous dose 30 mg/kg, 45 min) was 64000 ng/mL. The “Blood levels” value (Blood levels in mice; intravenous dose 30 mg/kg, 1 hr) was 50000 ng/mL, the “Blood levels” value (Blood levels in mice; intravenous dose 30 mg/kg, 1.5 hr) was 32000 ng/mL and the “Blood levels” value (Blood levels in mice; intravenous dose 30 mg/kg, 2 hr) was 23000 ng/mL. For the same compound, the “Blood levels” value (Blood levels in mice; intravenous dose 30 mg/kg, 3 hr) was 14000 ng/mL, the “absorption, parenterally” value (Blood levels in mice; intravenous or intramuscular administration) was “well absorbed” and the “absorption when administered orally” value (Blood levels in mice; oral) was “not absorbed”. For the same compound, the “antianaerobic activity, times more potent than amphomycin” value (anaerobic bacteria) was 2-16 times, the “fold more active than amphomycin” value (staphylococci) was 2-4 fold and the “activity against aerobic gram-negative organisms” value [3] was “no activity”.

— US4409210A, “Antibiotic compound” (priority 1982, dated 1983)
